Consider one molecule from patent US12708676B2, “Phosphate compounds for detecting neurological disorders” (Amydis, Inc., priority 2018, dated 2026).

≈ marks a conversion by molar mass, not a printed value. Like-named read-outs stand apart in the source and are kept apart here.

Series [1] in a line: Rabbit pharmacokinetics of Compound 9, Study 1 (retina, brain, blood). The format is in vivo. Particulars: other: injection (site not specified), Study 1, 30 mg Compound 9 injected. Here is the method: (§1) Compound 9 was injected into rabbits as a solution in 0.1 M phosphate buffer, pH 7.4 such that rabbits received either 30 mg of Compound 9 (Study 1) or 28 mg of Compound 9 (Study 2). The purpose of these studies was to confirm that Compound 9 could easily be converted into Compound 7 in vivo.
Study 1: Rabbits received a 1.5 mL injection of a 20 mg/mL solution of Compound 9 in 0.1 M phosphate buffer, pH 7.4. Rabbits were sacrificed at the specified time points (N=3 per time point) in the tables below and the average concentration of Compound 9 and Compound 7 was determined in the retina (Table 3), brain (Table 4) and blood (Table 5).

Series [2] in a line: Solubility of Compound 9 / phosphate prodrugs. Particulars: aqueous buffer; phosphate buffer at pH 7.4. The format is physicochemical. An excerpt: Due to the poor water solubility and the large particle size of compounds such as Compound 7, prodrug derivatives of these compounds were investigated.
Series [3] can be described thus: Rabbit pharmacokinetics of Compound 9, Study 2 (retina, brain, blood/plasma). The format is in vivo. Here is the method: as §1
Study 2: The purpose of this study was to determine if higher concentrations of Compound 9 and/or Compound 7 was present at earlier time points in the tissues specified. Rabbits received a 1.4 mL injection of a 20 mg/mL solution of Compound 9 in 0.1 M phosphate buffer, pH 7.4. Blood was collected from rabbits (N=6) two minutes after receiving Compound 9 to determine the blood concentration at this time point (Table 8). Rabbits were then sacrificed at the specified time points (N=3 per time point) in the tables below and the average concentrations of Compound 9 and Compound 7 were determined in the retina (Table 6), brain (Table 7) and blood (Table 8).

Another series concerns Aβ. The series is described as follows: Example 4: detection of Aβ in the retina of a TBI (blast) mouse model. The class given is in vivo. Particulars: blast model mice 24 hours after injury, Compound 9 intravenously; example in present tense. Here is the method: This example is conducted to determine whether Compound 9 detects Aβ in the retina of a TBI mouse model.
Blast model mice 24 hours after injury and a non-injured mouse are administered Compound 9 intravenously. Mice retinas are scanned by scanning laser ophthalmoscopy (SLO).
Alternatively, or in addition to retinal scanning, retinal tissues are removed and stained with an anti-Aβ antibody (6E10).

Series [4] deals with hyperphosphorylated three repeat tau protein. Description: Example 3: retinal fluorescent imaging of model mice after intravenous Compound 9. Further details: species or system mouse. Conditions: Compound 9 intravenously, retinas imaged ex vivo, example in present tense. Here is the method: Model mice having a detectable target protein, for example, an amyloid beta protein, or a phosphorylated tau protein, or an accumulated mass thereof, are administered Compound 9 intravenously. Retinas of the mice are removed and are mounted on slides. The retinas are washed with PBS 2 times for 5 minutes. A solution of 98% formic acid is added—5 minutes for antigen retrieval. The sampled are washed with distilled water—2 times for 5 minutes. The samples are equilibrated in 1×PBS for 15 minutes, then blocked with 10% goat/donkey serum in 1× PB ST (depending on antibodies) for 1 hour. Samples are covered in foil, and washed with 1× PBS 3 times for 5 minutes each. Samples are stained with DAPI (300 nM or 100 ng/mL) in dark for 10 minutes, then tissues are washed 3×10 minutes with PBS. Antifade DAKO mounting medium is added, and coverslip and kept under foil until imaging.
Fluorescent imaging study of the samples is conducted on a Leica DMI 4000B microscope (Leica, Germany) equipped with a TCS SPE camera and Leica 10, 20 and 40× objectives. The following lasers are used to visualize fluorescent probes pertaining to DAPI (blue, nuclear stain), Compound 7 (green) and hyperphosphorylated tau (red): 408, 488 and 568 nm. Z-stacked images are taken at 40× at 0.5 μm increments to visualize the entire thickness of the tissue.

Regarding `N#C/C(=C\c1ccc2cc(N3CCCCC3)ccc2c1)C(=O)NCCOCCOCCOP(=O)(O)O` [Compound 9], the concentration at 15 min in series [1] (blood, read-out: Avg Conc., blood) amounted to 5440 ± 767 ng/mL; in series [1] (brain, read-out: Avg Conc., brain), 0.439 ng/g. The concentration at 30 min in series [1] (blood, 30 min, read-out: Avg Conc., blood) was determined as 374 ± 301 ng/mL. Further, the concentration at 60 min in series [1] (blood, 60 min, read-out: Avg Conc., blood) was 24.9 ± 31.8 ng/mL. In addition, the solubility in series [2] was 20 to 30 mg/mL (≈ 38.6 to 58 mM). Also, the concentration at 5 min stood at 7.2 ± 2.62 ng/g in series [3] (brain, other: injection (site or type of injection not stated), rabbit, Study 2, 28 mg Compound 9 injected, 5 min, read-out: Avg Conc., brain) and 40000 ± 11800 ng/mL in series [3] (plasma, other: injection (site not specified), rabbit, Study 2, 28 mg Compound 9 injected, 5 min, read-out: Avg Conc., plasma). In addition, the concentration at 10 min came to 2.23 ± 0.426 ng/g in series [3] (brain, other: injection (site or type of injection not stated), rabbit, Study 2, 28 mg Compound 9 injected, read-out: Avg Conc., brain) and 8860 ± 1310 ng/mL in series [3] (plasma, other: injection (site not specified), rabbit, Study 2, 28 mg Compound 9 injected, read-out: Avg Conc., plasma). This molecule showed a Kp in series [3] (brain, rabbit, after injection of Compound 9) of less than 0.001. In series [3] (healthy rabbit model), the “Conversion of Compound 9 to Compound 7 in vivo” value was “rapidly converted to Compound 7”. The concentration at 2 min in series [3] (plasma, other: injection (site not specified), rabbit, Study 2, 28 mg Compound 9 injected, 2 min, read-out: Avg Conc., plasma) came to 67.6 ± 18.8 µg/mL. Besides, the “Avg Conc., retina” value in series [3] (rabbit, Study 2, 28 mg Compound 9 injected, 5 min) is on record as “remained undetectable”. Besides, the Adverse reactions entry in series [3] (rabbits, during the time course of the study) is “no adverse reactions were noted”. For the same molecule, in the series with Aβ, the “Scanning laser ophthalmoscopy image of retina” value is given as “showing the presence of Aβ plaques”. In series [4], the “Detection of hyperphosphorylated three repeat tau protein in the retina” value was “detected in the retina, producing a detectable fluorescent signal”.

A word on the solubility: it is the dissolved amount per volume that the medium holds. For orientation: Kp means the ratio of the level in a tissue or fluid to that in plasma or blood.
